Laboratory results as given in ChEMBL document CHEMBL5233249, “Recent advancements in the development of heterocyclic anti-inflammatory agents” (Eur J Med Chem, 2020).
pIC50: −log10 of the molar value. In brackets after ≈: the same amount, converted by molar mass. Blank lines part the entries; values can stand above or below the compound they belong to.

Assays:
Erythrocyte [1] = assay: Anti-inflammatory activity in human red blood cells assessed as stabilization of cell membrane; type: functional, cell-based
[2] = target: T1, Prostaglandin G/H synthase 2 (Homo sapiens) (UniProt P35354); assay: Inhibition of COX-2 (unknown origin) assessed as inhibition at 100 mg/kg relative to control; type: organism-based
T1 sequence (whole entry): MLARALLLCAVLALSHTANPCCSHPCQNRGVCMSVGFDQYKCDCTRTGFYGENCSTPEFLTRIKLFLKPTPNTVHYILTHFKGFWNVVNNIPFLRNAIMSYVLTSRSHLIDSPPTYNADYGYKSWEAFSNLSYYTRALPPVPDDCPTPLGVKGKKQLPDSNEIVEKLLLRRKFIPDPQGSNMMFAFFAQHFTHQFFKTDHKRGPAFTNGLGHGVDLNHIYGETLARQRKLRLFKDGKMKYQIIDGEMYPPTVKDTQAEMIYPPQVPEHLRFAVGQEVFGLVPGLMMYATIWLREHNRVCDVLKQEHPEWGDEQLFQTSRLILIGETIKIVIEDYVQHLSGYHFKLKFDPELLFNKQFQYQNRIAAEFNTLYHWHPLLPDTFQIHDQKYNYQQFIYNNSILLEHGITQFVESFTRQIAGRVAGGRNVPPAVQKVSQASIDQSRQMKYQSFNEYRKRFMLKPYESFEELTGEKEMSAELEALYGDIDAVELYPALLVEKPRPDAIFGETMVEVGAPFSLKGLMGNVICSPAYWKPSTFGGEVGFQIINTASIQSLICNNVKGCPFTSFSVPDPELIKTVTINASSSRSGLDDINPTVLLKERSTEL

RAW264.7 [3] = assay: Anti-inflammatory activity in mouse RAW264.7 cells assessed as inhibition of LPS-induced NO production measured after 24 hrs; type: functional, cell-based; settings: RAW264.7, 24 h
[4] = Anti-inflammatory activity assessed as heat -induced protein denaturation using hen egg albumin at 31.25 ug/ml relative to control; type: functional; settings: dose 31.25 µg/ml
[5] = target: T2, Polyunsaturated fatty acid 5-lipoxygenase (Homo sapiens, UniProt P09917); assay: Inhibition of 5-LOX (unknown origin) after 5 mins by colorimetric method
T2 sequence (P09917 whole entry): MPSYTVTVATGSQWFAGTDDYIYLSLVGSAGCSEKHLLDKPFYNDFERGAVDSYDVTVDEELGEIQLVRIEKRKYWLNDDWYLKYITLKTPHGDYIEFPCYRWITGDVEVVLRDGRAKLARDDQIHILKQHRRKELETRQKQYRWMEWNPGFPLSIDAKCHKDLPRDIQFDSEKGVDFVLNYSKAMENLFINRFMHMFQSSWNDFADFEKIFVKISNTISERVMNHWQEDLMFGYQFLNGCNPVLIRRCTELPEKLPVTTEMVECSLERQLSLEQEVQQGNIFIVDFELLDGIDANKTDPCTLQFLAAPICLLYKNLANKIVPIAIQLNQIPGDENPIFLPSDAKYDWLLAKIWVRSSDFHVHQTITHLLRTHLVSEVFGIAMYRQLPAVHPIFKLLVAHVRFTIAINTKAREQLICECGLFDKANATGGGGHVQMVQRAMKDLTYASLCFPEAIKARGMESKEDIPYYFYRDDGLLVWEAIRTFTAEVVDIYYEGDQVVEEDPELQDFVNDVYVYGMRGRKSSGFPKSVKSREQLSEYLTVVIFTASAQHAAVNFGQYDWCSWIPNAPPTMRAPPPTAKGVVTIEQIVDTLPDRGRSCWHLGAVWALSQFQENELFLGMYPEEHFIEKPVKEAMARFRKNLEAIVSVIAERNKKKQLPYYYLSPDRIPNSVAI

Mus musculus = assay: Anti-inflammatory activity against Carrageenan-induced paw edema in mouse model assessed as inhibition of edema at 100 mg/kg measured after 3 hrs relative to control; type: functional; design: scale not given: the % may be the effect or the level left
Rattus norvegicus [6] = assay: Anti-inflammatory activity against Carrageenan-induced paw edema in PO dosed Wistar albino rat assessed as inhibition of edema measured after 3 hr relative to control; type: functional; design: scale not given: the % may be the effect or the level left
RAW264.7 [7] = assay: Anti-inflammatory activity in mouse RAW264.7 cells assessed as inhibition of LPS-induced NO production in macrophages; type: functional, cell-based
Rattus norvegicus [8] = assay: Anti-inflammatory activity against Carrageenan-induced paw edema in PO dosed Wistar albino rat assessed as inhibition of edema measured after 1 hr relative to control; type: functional; design: scale not given: the % may be the effect or the level left
Rattus norvegicus [9] = assay: Anti-inflammatory activity against Carrageenan-induced paw edema in PO dosed Wistar albino rat assessed as inhibition of edema measured after 4 hr relative to control; type: functional; design: scale not given: the % may be the effect or the level left
Rattus norvegicus [10] = assay: Anti-inflammatory activity against Carrageenan-induced paw edema in PO dosed Wistar albino rat assessed as inhibition of edema measured after 2 hr relative to control; type: functional; design: scale not given: the % may be the effect or the level left
[11] = Antioxidant activity assessed as DPPH radical scavenging activity incubated for 20 mins by spectrophotometric analysis; type: functional
[12] = Selectivity index, ratio of IC50 for ovine COX1 to IC50 for recombinant human COX2
Rattus norvegicus [13] = assay: Anti-inflammatory activity against Carrageenan-induced paw edema in PO dosed Wistar albino rat assessed as reduction in hind paw edema volume at 20 mg/kg relative to control; type: functional; design: scale not given: the % may be the effect or the level left
[14] = Anti-inflammatory activity assessed as protein denaturation using bovine serum albumin relative to control; type: functional
Rattus norvegicus [15] = assay: Anti-inflammatory activity in Wistar rat assessed as reduced hind paw edema at 25 mg/kg relative to control; type: functional; design: scale not given: the % may be the effect or the level left
Erythrocyte [16] = assay: Anti-inflammatory activity in rat red blood cells assessed as stabilization of cell membrane at 200 microg/ml relative to control; type: functional; settings: dose 200 µg/ml
Erythrocyte [17] = assay: Anti-inflammatory activity in rat red blood cells assessed as stabilization of cell membrane at 500 microg/ml relative to control; type: functional; settings: dose 500 µg/ml
[18] = Anti-inflammatory activity assessed using bovine serum albumin/egg albumin proteins assessed as protein denaturation measured at 95 degC for 20 mins by measuring turbidity by UV-Vis spectrophotometer; type: functional

- EC50 (Erythrocyte [1]): 11 µg/mL (≈ 32 µM)
SMILES: Oc1ccccc1-c1cc(-c2cc3cc4ccccc4nc3s2)[nH]n1

- inhibition [2]: 11.1%
SMILES: CC(=O)Oc1ccccc1C(=O)O

- pIC50 (RAW264.7 [3]): 6.21
SMILES: C[C@@H]1C[C@H]2[C@@H]3CCC4=CC(=O)C=C[C@]4(C)[C@@]3(F)[C@@H](O)C[C@]2(C)[C@@]1(O)C(=O)CO [DEXAMETHASONE]

- pIC50 [5]: 6.05
SMILES: O=C(O)c1ccc(CSc2nc3cc(F)c(Oc4ccc(F)cc4)cc3[nH]2)cc1
- Activity (Mus musculus): 66.13%

- pIC50 (RAW264.7 [7]): 5.93
SMILES: C=CC(CO)[C@@H]1C[C@H]2c3[nH]c4ccccc4c3CCN2C(=O)[C@H]1CO (some centres not stated)

- inhibition [2]: 33.7%
SMILES: Cc1ccc(-c2nn(-c3ccccc3)cc2C(O)C(F)(F)C(=O)NN)cc1 (configuration not stated)
- Activity [11]: 70.9%

- Selectivity Index [12]: 5.44
SMILES: Cc1cc(-c2ccccc2)n(-c2nc3c(cnn3-c3ccccc3)c(=O)n2-c2ccccc2)n1

- EC50 (Erythrocyte [1]): 14 µg/mL (≈ 37.1 µM)
SMILES: Oc1ccc(Cl)cc1-c1cc(-c2cc3cc4ccccc4nc3s2)[nH]n1

- Selectivity Index [12]: 10
SMILES: NS(=O)(=O)c1ccc(-n2nc(C(=O)NNC(=O)c3cccc(C(F)(F)F)c3)cc2-c2ccccc2)cc1
- Activity (Rattus norvegicus [15]): 62.48%

- IC50 [18]: 57.24 µg/mL (≈ 113 µM)
SMILES: Cc1ccc(-c2nn(-c3ccccc3)cc2CCC(=O)OCc2cn(-c3ccc([N+](=O)[O-])cc3)nn2)cc1
- Activity (Erythrocyte [16]): 74%
- Activity (Erythrocyte [17]): 97%

More lines, now with the values behind:

SMILES: COc1ccc2oc(=O)cc(COc3ccc4ccccc4c3/C=N/c3c(C)n(C)n(-c4ccccc4)c3=O)c2c1
- Activity [4]: 53.6%

SMILES: N#CC(/N=N/c1ccc2c(c1)CCC2)=C(\N)N1CCCCC1
- Activity (Rattus norvegicus [6]): 63.95%

SMILES: CC(C)(CO)NC(=O)CCCC(=O)/C=C/c1cn(-c2ccccc2)nc1-c1ccccc1
- Activity (Rattus norvegicus [8]): 40%
- Activity (Rattus norvegicus [9]): 30.95%
- Activity (Rattus norvegicus [10]): 25.56%

SMILES: Cc1c(/N=C/c2c(OCc3cc(=O)oc4cc(O)ccc34)ccc3ccccc23)c(=O)n(-c2ccccc2)n1C
- Activity [4]: 67.3%

SMILES: COc1ccc(N/N=C2\C(=O)N(CNc3c(C)cccc3C)N=C2Nc2ccccc2F)cc1
- Activity (Rattus norvegicus [13]): 51%

SMILES: O=C1/C(=N\Nc2ccccc2Br)C(Nc2ccccc2F)=NN1CNc1ccccc1
- Activity (Rattus norvegicus [13]): 64%

SMILES: O=C(O)Cc1ccccc1Nc1c(Cl)cccc1Cl
- Activity [14]: 84.1%

SMILES: CC(=O)Nc1ccc(OC(=O)CCCC(=O)/C=C/c2cn(-c3ccccc3)nc2-c2ccccc2)cc1
- Activity (Rattus norvegicus [8]): 20%
- Activity (Rattus norvegicus [9]): 28.57%
- Activity (Rattus norvegicus [10]): 15.56%
